In patent EP0240630A2, “Treatment of skin of over androgenicity using compositions containing pregnenolone” (priority 1986, dated 1987):

Key:
flank organ = settings: topical application, graded doses, 5 days/week for 2 weeks; cited from earlier work
flank organs = test: Stimulation of female hamster flank organ growth by topical DHA; assay type: in vivo, female hamsters; settings: 12 µg, 60 µg, 120 µg applied to the right side, 7 days/week for 6 weeks
Method: Before testing the anti-androgenic properties of pregnenolone on hamster flank organs and relying on the results, a centrally important question therefore needed to be answered -- Could DHA be shown to stimulate growth in the flank organs? This question was answered by applying graded doses of DHA, 12 µg, 60 µg, 120 µg to the right side of female hamsters (5 hamsters/group), for 7 days/week for 6 weeks.

3βHSD = test: In vivo metabolism of injected 1,2-3H-DHA in DHA-stimulated hamster flank organs after topical inhibitor; set-up: species or system Syrian Golden Hamsters; settings: female hamsters, pregnenolone topical for 3 days; 1 hour after intracardial ³H-DHA
Text: The effects of hormones and hormonally active substances on sebaceous glands can also be evaluated using the Syrian hamster flank organs as an animal model. The results of experiments using hamsters are valuable inasmuch as they can provide in vivo confirmation of the in vitro experiments like those described above using rat preputial gland. The flank organs, also called the costovertebral spot or the costovertebral organ, are sebaceous structures located on each flank of the animal. Like the sebaceous glands of the human and the preputial gland of the rate they are androgen dependent (Voigt and Hsia, 1973; Gomez and Frost, 1969; Frost and Gomez, 1973).
Hamster flank organs were accordingly used to test in vivo the androgenic inhibitory properties of pregnenolone.
Female Syrian Golden Hamsters were used in this experiment. […]
On the afternoon of day 3, an intracardial injection of 1,2-³H-DHA (5µCi/0.1 ml saline buffer solution) was given to both experimental groups anesthetized with ether. […] Each organ was then placed in a 16 mm x 150 mm test tube containing methanol and was homogenized, extracted and analyzed for steroid metabolites by separating the metabolites using thin layer chromatography as described above, scraping the thus separated metabolites from the thin layer plates, and quantitating using a scintillation counter. […]
Results are shown in Figure 2 expressed as DPM/mg tissue.

[1] = test system: 3β-hydroxysteroid dehydrogenase Δ^4-5-isomerase (3βHSD); test: Inhibition of 3βHSD conversion of 3H-DHA in rat preputial gland homogenate (TLC/scintillation counting); assay type: biochemical; settings: rat preputial gland homogenate, 1,2-³H-DHA with 100 nmoles DHA, 37°C; range of four separate incubations
Method: To assess the androgen inhibiting activity of pregnenolone, rat preputial gland was employed to investigate the in vitro androgenic action of DHA. […] A pair of the glands are situated in the prepuce of the rate of either sex weighing between 125-200 mg in an average 200 g rat, being slightly larger in the male animal. The animals employed were female Sprague-Dawley rats, 10-12 weeks old and weighing 225-300 g.
The experimental format, stated broadly, was to excise preputial glands from rats and prepare a homogenate therefrom. A predetermined amount of homogenate (the sample) was then spiked with radiolabeled (with ³H) DHA, in the presence or absence of pregnenolone, and the sample was incubated. […] The metabolites were quantitated by removal from the thin layer plate and counting in a scintillation counter. By determining the extent of metabolite formation, the extent of inhibition of 3βHSD could be correspondingly determined. […]
Experiments were initially conducted to ensure that DHA and its metabolites could be separated chromatographically. […] The position of the steroid can be readily traced with this method. […] Elution and quantitative evaluation of steroids can be effected after removal of the iodine. […] For quantitation the plates were then scraped in 1 cm sections for radioassay of ³H in a Packard Tri- Carb liquid scintillation counter. […]

acne vulgaris = assay type: in vivo, human
Method: The following experiment was conducted and is a typical trial. In a double-blind clinical trial 23 patients with acne vulgaris volunteered to participate. Fifteen patients (11 females and 4 males) were given a 1% solution of pregnenolone dissolved in isopropanol containing 1% glycerol, and 8 patients (5 females and 3 males) were given a 1% solution of glycerol in isopropanol. Neither the patients nor the attending dermatologist knew whether or not the dispensed solution contained pregnenolone. The patients were instructed to stop using their previous medications for two weeks and then to apply the given solution to their faces twice daily. They were reexamined biweekly.

[2] = Solubility in formulation vehicles; assay type: physicochemical
Text: With regard to formulation for use with humans, because pregnenolone is insoluble in water, most aqueous base vehicles or carriers are not useful in the invention. Vehicles with a high content of alcohols, such as isopropanol or mixtures of alcohols with longer (C₄-C₁₀) alkane or alkene chains, in which pregnenolone is soluble, would afford a suitable base for the formulation as liquid, gel or cream. Glycerol may be added in the preparation as an emollient. Glycerol is hygroscopic; it keeps the skin surface from drying. Other additions of moisturizers or perfumes as known in the art are compatible with pregnenolone.

[3] = 1% pregnenolone in isopropanol containing 1% glycerol, face, twice daily, twelve weeks, 15 patients

C[C@]12CCC(=O)C=C1CC[C@@H]1[C@@H]2CC[C@]2(C)C(=O)CC[C@@H]12 [androstenedione, Δ⁴-androstenedione]
flank organ sebaceous gland growth and pigmentation (flank organ): unilateral stimulation of sebaceous gland growth and pigmentation

C[C@]12CC[C@@H](O)C[C@@H]1CC[C@@H]1[C@@H]2CC[C@]2(C)C(=O)CC[C@@H]12 [androsterone]
flank organ sebaceous gland growth and pigmentation (flank organ): did not cause flank organ growth or increased pigmentation

C[C@]12CC[C@H](O)C[C@@H]1CC[C@@H]1[C@@H]2CC[C@]2(C)C(=O)CC[C@@H]12 [epiandrosterone]
flank organ sebaceous gland growth and pigmentation (flank organ): did not cause flank organ growth or increased pigmentation

C[C@]12CC[C@H](O)CC1=CC[C@@H]1[C@@H]2CC[C@]2(C)C(=O)CC[C@@H]12 [DHA, dehydroepiandrosterone]
stimulation of flank organ growth (flank organs): stimulation of both flank organs

CC(=O)[C@H]1CC[C@H]2[C@@H]3CCC4=CC(=O)CC[C@]4(C)[C@H]3CC[C@]12C [progesterone]
flank organ sebaceous gland growth and pigmentation (flank organ): did not cause flank organ growth or increased pigmentation

C[C@]12CC[C@H]3[C@@H](CCC4=CC(=O)CC[C@@]43C)[C@@H]1CC[C@@H]2O [testosterone]
flank organ sebaceous gland growth and pigmentation (flank organ): unilateral stimulation of sebaceous gland growth and pigmentation

CC(=O)[C@H]1CC[C@H]2[C@@H]3CC=C4C[C@@H](O)CC[C@]4(C)[C@H]3CC[C@]12C [pregnenolone, Δ⁵-pregnene-3β-o1-20-one]
formation of testosterone, DHT and androstanediol in flank organs, control versus treated (3βHSD): Control hamsters, not treated with inhibitor, show greater formation
inhibition of the 3βHSD for DHA (Δ⁴-3-keto product formed, relative to absence of the inhibitor) [1]: 91-92%
patients noted definite improvement, with reduction in the size and number of lesions (acne vulgaris; [3]): 33%
patients noted no change in lesions or oiliness (acne vulgaris; [3]): 26%
patients noted reduction of oiliness (acne vulgaris; [3]): 13%
patients noted slight reduction of the number of lesions and a reduction in the oiliness of the skin (acne vulgaris; [3]): 26%
patients showed marked reductions in skin oiliness and in pore size (acne vulgaris; 1% pregnenolone in isopropanol containing 1% glycerol, twelve weeks, 15 patients): two
patients' comparison with other medications used previously (acne vulgaris; claim of patients who had used other medications previously): more effective and more acceptable
irritation or discomfort caused by the topical application (acne vulgaris; human, in vivo): no complaint
solubility in vehicles with a high content of alcohols ([2]; isopropanol or mixtures of alcohols with longer (C₄-C₁₀) alkane or alkene chains): soluble
solubility in water ([2]; water): insoluble

C[C@]12CCC(=O)C=C1CC[C@@H]1[C@@H]2CC[C@@]2(C)[C@H]1CC[C@]2(C)O [methyltestosterone]
flank organ sebaceous gland growth and pigmentation (flank organ): unilateral stimulation of sebaceous gland growth and pigmentation

C[C@]12CCC(=O)C[C@@H]1CC[C@@H]1[C@@H]2CC[C@]2(C)[C@@H](O)CC[C@@H]12 [DHT, dihydrotestosterone]
flank organ sebaceous gland growth and pigmentation (flank organ): unilateral stimulation of sebaceous gland growth and pigmentation
